Laboratory results reported in patent US9066516B2, “Uses of thaxtomin and thaxtomin compositions as herbicides” (priority 2008, dated 2015).
Like-named read-outs stand apart in the source and are kept apart here.

Assays:
dandelion = assay: Greenhouse synergy test MBI-005 + turf herbicides (Example 11); type: in vivo; conditions: 14 days
Description: (§1) The common turf weeds dandelion and plantain were used in testing for synergy between MBI-005 and 2, 4- or dicamba, two common turf herbicides.
(§2) There were 3 replicates per treatment which were sprayed with approximately ⅔ ml per replicate. The treatments were completely randomized and kept in a greenhouse at 25° C. The efficacy was rated at 7 and 14 days post treatment.

plantain = assay: as above; type: in vivo; conditions: 14 days
Description: as §1, §2

crabgrass [1] = assay: Post-emergent MBI-005 + Atrazine on crabgrass (Example 17); type: in vivo; conditions: 35% Atrazine Label Rate
Description: Ten seedlings in 2.5 cm square pots containing plant growth mix were sprayed with two suboptimal rates of MBI-005, and 35% of the atrazine label rate (0.3 gallons/A), or a combination thereof, at a volume of 40 gal/A using a cabinet track sprayer. Negative controls were sprayed with water. Pots were randomly placed in a growth room at 25° C. and 50% RH, and watered as necessary. Treatments were replicated five times and evaluated at 7 and 14 days for visual % damage, with 0% indicating no damage and 100% indicating plant death.
(§3) Synergy was calculated as the ratio of observed (E) to expected (E/Ee) percent control using Colby's formula.

barnyard grass [2] = assay: Greenhouse spray test bialaphos + MBI-005 (Example 10); type: in vivo
Description: The MBI-005 and bialaphos were prepared at various concentrations either as single ingredients or in combination with bialaphos. The treatments were applied at approximately ⅔ ml per replicate with a hand-help spray nozzle to barnyard grass or sedge. There were 3 replicates per treatment which were randomized after spray and were kept in a greenhouse at 25° C. for evaluation of phytotoxicity (% control).

[3] = tested on: small flower umbrella sedge; assay: Post-emergent MBI-005 + rice herbicides on smallflower umbrella sedge (Example 19); type: in vivo; conditions: 14 days
Description: (§4) Twenty seedlings in 2.5 cm square pots containing plant growth mix were sprayed to full coverage using a hand sprayer. Negative controls were sprayed with water. Pots were randomly placed in a growth room at 25° C. and 50% RH, and watered as necessary. Treatments were replicated three times and evaluated at 7 and 14 days for visual % damage, with 0% indicating no damage and 100% indicating plant death.
as §3

broad-leaf mustard = assay: Greenhouse synergy test MBI-005 + commercial herbicides (Example 11); type: in vivo; conditions: 14 days
Description: (§5) The test species barnyard grass, ragweed, sedge, and broad-leaf mustard were used for the valuation of synergy between MBI-005 and the rice herbicides clomazone, penoxsulam, cyhalofop, fenoxaprop-p-ethyl, bispyribac-sodium, thiobencarb, and propanil.
as §2

barnyard grass [4] = assay: as above; type: in vivo; conditions: 14 days
Description: as §5, §2

barnyard grass [5] = assay: Post-emergent MBI-005 + rice herbicides on barnyard grass (Example 18); type: in vivo; conditions: 14 days
Description: as §4, with “Ten” for “Twenty”
Synergistic effect were noted between MBI-005 and all three rice herbicides, 14 days after treatment. Synergy was calculated as the ratio of observed (E) to expected (E/Ee) percent control using Colby's formula.

ragweed = assay: Greenhouse synergy test MBI-005 + commercial herbicides (Example 11); type: in vivo; conditions: 14 days
Description: as §5
(§6) […] other herbicides commonly used for field crops, glyphosate, glufosinate, synthetic version of bialaphos, and mesotrione were also tested for synergy with MBI-005 on crabgrass and ragweed.
as §2

[6] = tested on: small-flower umbrella sedge; assay: Field study, 1-sq foot plots (Example 5); type: in vivo; conditions: 14 days after treatment
Description: (§7) The combined effect of thaxtomin A and two commercial herbicides (Bipyribac-sodium formulated as Regiment and Lemongrass oil formulated as GreenMatch EX) on small-flower umbrella sedge and watergrass is tested in a field study using small (1-sq foot) plots. All single product treatments and tank mix combinations were sprayed at 57 gal per acre. Means in each column marked with the same letter in Table 2 are not statistically different from each other at p<0.05

watergrass = assay: Field study, 1-sq foot plots (Example 5); type: in vivo; conditions: 14 days after treatment
Description: as §7

crabgrass [7] = assay: Crabgrass seed germination, MBI-005 + m-Tyrosine (Example 15); type: in vivo; conditions: 7 DAT; for AVG No. germinated: forty-five seeds
Description: Forty-five seeds were placed on a ring of blotter paper inside a 3 cm petri dish, covered with 10 cm^3 of inert baked clay particle media and supplied with 7 ml of 0.035 mg/ml MBI-005, a m-Tyrosine concentration, or a combination of MBI-005 and m-Tyrosine (Table 14). Water was used as a negative control. Petri dishes were randomly placed in a growth room at 25° C. and 50% RH. Treatments were replicated three times and germinated seeds were counted 7 days after application; water was added as necessary to maintain moisture levels inside each petri dish.
Synergy was calculated as the ratio of observed (E) to expected (E/Ee) reduction in germination using Colby's formula.

[8] = tested on: smallflower umbrella sedge; Cyperus difformis; assay: Greenhouse study thaxtomin A / sarmentine (Example 9); type: in vivo; conditions: 25 days after treatment
Description: (§8) A strain of S. acidiscabies was grown in oat bran broth for 5 days (25° C., 200 rpm). The whole cell broth was extracted using XAD resin, and the dried crude extract was resuspended in 4% ethanol and 0.2% non-ionic surfactant at a concentration of 10 mg/mL. The diluted extracts containing 0.2 and 0.4 mg thaxtomin A per mL were tested on three weed species (redstem; Ammania spp., smallflower umbrella sedge; Cyperus difformis and sprangletop: Leptochloa uninervia). Other treatments included sarmentine at 2.5 and 5.0 mg/mL, and a combination treatment containing 0.2 mg thaxtomin A and 2.5 mg sarmentine per mL. Each treatment was applied in three replicates. Treated plants were kept in a greenhouse under 12 h light/12 h dark conditions.

redstem; Ammania spp. = assay: as above; type: in vivo; conditions: 25 days after treatment
Description: as §8

[9] = tested on: sprangletop: Leptochloa uninervia; assay: as above; type: in vivo; conditions: 25 days after treatment
Description: as §8

sedge = assay: Greenhouse synergy test MBI-005 + commercial herbicides (Example 11); type: in vivo; conditions: 14 days
Description: as §5, §2

crabgrass [10] = assay: Greenhouse synergy test MBI-005 + field crop herbicides (Example 11); type: in vivo; conditions: 14 days
Description: as §6, §2

barnyard grass [11] = assay: Post-emergent MBI-005 + Propanil on barnyard grass (Example 20); type: in vivo; conditions: Echinochloa crus-galli, post-emergence, 336 h; 25% Propanil (of label rate); 14 days; read-out: Observed Average % Efficacy (E)
Description: Negative controls were sprayed with water. Pots were randomly placed in a growth room at 25° C. and 50% RH, and watered as necessary. Treatments were replicated three times and evaluated at 7 and 14 days for visual % damage, with 0% indicating no damage and 100% indicating plant death.
as §3

[12] = in vivo; cited from earlier work
[13] = tested on: Smallflower umbrella sedge; assay: Post-emergent MBI-005 + Thiobencarb on Smallflower umbrella sedge (Example 21); type: in vivo; conditions: post-emergence, 336 h, 14 days, read-out: Observed Average % Efficacy (E)
Description: […] Negative controls were sprayed with water. Pots were randomly placed in a growth room at 25° C. and 50% RH, and watered as necessary. Treatments were replicated three times and evaluated at 7 and 14 days for visual % damage, with 0% indicating no damage and 100% indicating plant death.
as §3

[14] = Bispyribac-sodium 13.3% v/v of label rate

O=C(O)COc1ccc(Cl)cc1Cl [2,4-D, reference compound]
% Control Product (dandelion; 2, 4-D 0.176 mg/mL): 25.0% | % Control Product (plantain; 2, 4-D 2.340 mg/mL): 50.0%

CCNc1nc(Cl)nc(NC(C)C)n1 [Atrazine, reference compound]
AVG E (visual % damage) (crabgrass [1]; 7DAT): 11.9% | AVG/ E (visual % damage) (crabgrass [1]; 14DAT): 8.8%

C[C@H](NC(=O)[C@H](C)NC(=O)[C@@H](N)CCP(C)(=O)O)C(=O)O [Bialaphos]
% Control (14 days) (barnyard grass [2]; Table 6, Bialaphos 0.089 mg/mL): 0.0 a % | % Control (14 days) (barnyard grass [2]; Table 6, Bialaphos 0.178 mg/mL): 0.0 a % | % Control (14 days) (barnyard grass [2]; Table 6, Bialaphos 0.356 mg/mL): 0.0 a % | % Control (14 days) (barnyard grass [2]; Table 6, Bialaphos 0.534 mg/mL): 0.0 a % | % Control (14 days) (barnyard grass [2]; Table 6, Bialaphos 0.712 mg/mL): 0.0 a % | % Control (14 days) (barnyard grass [2]; Table 6, Bialaphos 0.890 mg/mL): 1.3 ab % | % Control (14 days) (barnyard grass [2]; Table 6, Bialaphos 1.068 mg/mL): 5.0 abc % | % Control (14 days) (barnyard grass [2]; Table 7, Bialaphos 0.18 mg/mL): 6.7 bc % | % Control (14 days) (barnyard grass [2]; Table 7, Bialaphos 0.53 mg/mL): 3.3 ab % | % Control (14 days) (barnyard grass [2]; Table 7, Bialaphos 1.07 mg/mL): 10.0 c % | % Control (14 days) (barnyard grass [2]; Table 7, Bialaphos 1.07 mg/mL, listed as bialaphos): 10% | % Control (7 days) (barnyard grass [2]; Table 8, Bialaphos 1.1 mg/mL): 5.0 ab % | % Control (14 days) (barnyard grass [2]; Table 8, Bialaphos 1.1 mg/mL): 3.7 a % | % Control (7 days) (barnyard grass [2]; Table 8, Bialaphos 1.4 mg/mL): 10.8 b % | % Control (14 days) (barnyard grass [2]; Table 8, Bialaphos 1.4 mg/mL): 23.3 b % | % Control (7 days) (barnyard grass [2]; Table 8, Bialaphos 1.8 mg/mL): 62.5 c % | % Control (14 days) (barnyard grass [2]; Table 8, Bialaphos 1.8 mg/mL): 66.7 c %

COc1cc(OC)nc(Oc2cccc(Oc3nc(OC)cc(OC)n3)c2C(=O)O)n1 [Bispyribac-sodium]
% control AI [3, 14]: 37.5% | % Control Product (broad-leaf mustard; bispyribac-sodium 0.0216 mg/mL): 53.3% | % Control Product (barnyard grass [4]; bispyribac-sodium 0.032 mg/mL): 0.0% | % control chemical AI (barnyard grass [5]; [14]): 6.7% | % Control Product (ragweed; bispyribac-sodium 0.0216 mg/mL): 5.0% | Sedge control (%) ([6]; Bispyribac-sodium 12 g/acre): 87.5a % | Sedge control (%) ([6]; Bispyribac-sodium ½ (6 g/acre)): 47.5c % | Watergrass control (%) (watergrass; Bispyribac-sodium 12 g/acre): 32.5a % | Watergrass control (%) (watergrass; Bispyribac-sodium ½ (6 g/acre)): 15c %

N[C@@H](Cc1cccc(O)c1)C(=O)O [M-tyrosine, m-Tyrosine]
E (% controlled compared to UTC) (crabgrass [7]; .22 mg/mL M-tyrosine): 8.3% | AVG No. germinated (crabgrass [7]; .22 mg/mL M-tyrosine): 40.7 | E (% controlled compared to UTC) (crabgrass [7]; .44 mg/mL M-tyrosine): 0.8% | AVG No. germinated (crabgrass [7]; .44 mg/mL M-tyrosine): 44.0

CCCCC/C=C/C=C/C(=O)N1CCCC1 [Sarmentine]
Control of sedge (%) ([8]; Sarmentine 2.5 mg/mL): 8.3a % | Control of sedge (%) ([8]; Sarmentine 5.0 mg/mL): 6.7a % | Control of redstem (%) (redstem; Ammania spp.; Sarmentine 2.5 mg/mL): 0a % | Control of redstem (%) (redstem; Ammania spp.; Sarmentine 5.0 mg/mL): 2.5ab % | Control of sprangletop (%) ([9]; Sarmentine 2.5 mg/mL): 80.0c % | Control of sprangletop (%) ([9]; Sarmentine 5.0 mg/mL): 92.3d %

CC1(C)CON(Cc2ccccc2Cl)C1=O [clomazone]
% control AI ([3]; Clomazone 13% v/v of label rate): 0.0% | % Control Product (sedge; clomazone 0.501 mg/mL): 0.0% | % Control Product (broad-leaf mustard; clomazone 0.513 mg/mL): 25.0% | % Control Product (barnyard grass [4]; clomazone 0.513 mg/mL): 37.5% | % control chemical AI (barnyard grass [5]; Clomazone 13.3 % v/v of label rate): 37.50%

COc1c(Cl)ccc(Cl)c1C(=O)O [dicamba, reference compound]
% Control Product (dandelion; dicamba 0.121 mg/mL): 45.8% | % Control Product (plantain; dicamba 6.025 mg/mL): 50.0%

CCOC(=O)[C@@H](C)Oc1ccc(Oc2nc3ccc(Cl)cc3o2)cc1 [fenoxaprop-p-ethyl]
% Control Product (sedge; fenoxaprop-p-ethyl 0.116 mg/mL): 0.0% | % Control Product (broad-leaf mustard; fenoxaprop-p-ethyl 0.006 mg/mL): 0.0% | % Control Product (barnyard grass [4]; fenoxaprop-p-ethyl 0.006 mg/mL): 91.7%

CP(=O)(O)CCC(N)C(=O)O (centres unmarked) [glufosinate]
% Control Product (crabgrass [10]; glufosinate 0.151 mg/mL): 83.3% | % Control Product (ragweed; glufosinate 0.194 mg/mL): 22.5%

O=C(O)CNCP(=O)(O)O [glyphosate]
% Control Product (crabgrass [10]; glyphosate 0.754 mg/mL): 45.8% | % Control Product (ragweed; glyphosate 2.198 mg/mL): 15.0%

CS(=O)(=O)c1ccc(C(=O)C2C(=O)CCCC2=O)c([N+](=O)[O-])c1 [mesotrione]
% Control Product (crabgrass [10]; mesotrione 0.24 mg/mL): 62.5% | % Control Product (ragweed; mesotrione 0.96 mg/mL): 25.0%

COc1cnc(OC)n2nc(NS(=O)(=O)c3c(OCC(F)F)cccc3C(F)(F)F)nc12 [penoxsulam]
% control AI ([3]; Penoxsulam 13% v/v of label rate): 33.3% | % Control Product (sedge; penoxsulam 0.047 mg/mL): 66.7% | % Control Product (barnyard grass [4]; penoxsulam 0.051 mg/mL): 25.0% | % control chemical AI (barnyard grass [5]; Penoxsulam 13.0 % v/v of label rate): 25.0%

CCC(=O)Nc1ccc(Cl)c(Cl)c1 [propanil]
% control AI ([3]; Propanil .5% v/v of label rate): 62.5% | % Control Product (broad-leaf mustard; propanil 0.036 mg/mL): 1.67% | % Control Product (barnyard grass [4]; propanil 0.365 mg/mL): 32.5% | Observed average % efficacy (visual damage) (barnyard grass [11]): 32.5%

CN1C(=O)[C@H](Cc2c[nH]c3cccc([N+](=O)[O-])c23)N(C)C(=O)[C@@H]1Cc1ccccc1 [thaxtomin D, reference compound]
activity as pre and post emergent, non-systemic herbicides [12]: marked activity

CCN(CC)C(=O)SCc1ccc(Cl)cc1 [thiobencarb]
% control AI ([3]; Thiobencarb 25% v/v of label rate): 41.7% | % Control Product (sedge; thiobencarb 3.15 mg/mL): 58.3% | % Control Product (broad-leaf mustard; thiobencarb 1.743 mg/mL): 10.0% | % Control Product (barnyard grass [4]; thiobencarb 1.743 mg/mL): 41.7% | Observed average % efficacy ([13]; first series, 25% Thiobencarb): 41.7% | Observed average % efficacy ([13]; second series, 15% Thiobencarb): 25%
